# Target: T1, human GlyT1c transporter (Homo sapiens, UniProt P48067)
# T1 construct: expressed in transfected cells; host or cells: CHO cells (recombinant; line hGlyT1c_5_CHO is named for the uptake assay)
# T1 sequence (P48067 1-706): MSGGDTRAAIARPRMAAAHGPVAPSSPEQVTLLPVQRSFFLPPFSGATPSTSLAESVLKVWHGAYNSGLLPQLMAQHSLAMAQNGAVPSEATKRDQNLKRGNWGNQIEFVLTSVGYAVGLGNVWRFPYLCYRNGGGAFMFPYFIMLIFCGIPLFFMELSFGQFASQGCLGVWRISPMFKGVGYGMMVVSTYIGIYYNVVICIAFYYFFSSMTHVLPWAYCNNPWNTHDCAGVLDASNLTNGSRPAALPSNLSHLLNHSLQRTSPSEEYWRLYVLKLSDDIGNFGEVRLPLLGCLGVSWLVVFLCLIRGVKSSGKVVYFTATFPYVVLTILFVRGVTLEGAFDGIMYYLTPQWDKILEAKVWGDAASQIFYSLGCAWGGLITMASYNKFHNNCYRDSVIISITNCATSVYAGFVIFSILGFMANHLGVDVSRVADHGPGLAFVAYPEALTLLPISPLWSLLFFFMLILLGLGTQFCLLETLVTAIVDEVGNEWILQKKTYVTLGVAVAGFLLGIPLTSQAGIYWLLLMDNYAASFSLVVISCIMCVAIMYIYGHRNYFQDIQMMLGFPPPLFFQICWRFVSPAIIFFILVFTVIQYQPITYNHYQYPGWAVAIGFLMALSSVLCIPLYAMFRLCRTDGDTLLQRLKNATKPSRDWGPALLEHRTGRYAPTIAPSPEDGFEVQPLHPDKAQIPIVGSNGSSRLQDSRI
# Test: Radioligand binding assay using recombinant CHO cell membranes expressing human GlyT1
# Conditions: radioligand binding to human GlyT1c transporter-expressing membranes
# Excerpt: 2. Radioligand binding assays using recombinant CHO cell membranes expressing human GlyT1: […]
row,SMILES,Ki
1,"Cc1noc(C)c1S(=O)(=O)N1CC(Nc2ccc(F)c(F)c2)C(c2ccccc2)C1 (stereo not drawn) [Example 513, N-(3,4-difluorophenyl)-1-[(3,5-dimethyl-1,2-oxazol-4-yl)sulfonyl]-4-phenylpyrrolidin-3-amine]",> 10 µM
2,"Cc1ccc(S(=O)(=O)N2CC(Nc3ccc(F)c(F)c3)C(c3ccccc3)C2)s1 (stereo not drawn) [Example 518, N-(3,4-difluorophenyl)-1-[(5-methylthiophen-2-yl)sulfonyl]-4-phenylpyrrolidin-3-amine]",> 10 µM
3,"O=S(=O)(c1ccc2c(c1)CCO2)N1CC(Nc2ccc(F)c(F)c2)C(c2ccccc2)C1 (stereo not drawn) [Example 519, N-(3,4-difluorophenyl)-1-(2,3-dihydro-1-benzofuran-5-ylsulfonyl)-4-phenylpyrrolidin-3-amine]",> 10 µM
4,"CCOC(=O)N[C@H]1CN(S(=O)(=O)c2cn(C)cn2)C[C@@H]1c1ccccc1 [Example 541, ethyl {(3R,4S)-1-[(1-methyl-1H-imidazol-4-yl)sulfonyl]-4-phenylpyrrolidin-3-yl}carbamate]",≤ 10 µM
5,"CCCOC(=O)N[C@H]1CN(S(=O)(=O)c2cn(C)cn2)C[C@@H]1c1ccccc1 [Example 542, propyl {(3R,4S)-1-[(1-methyl-1H-imidazol-4-yl)sulfonyl]-4-phenylpyrrolidin-3-yl}carbamate]",≤ 10 µM
6,"CCCCOC(=O)N[C@H]1CN(S(=O)(=O)c2cn(C)cn2)C[C@@H]1c1ccccc1 [Example 544, butyl {(3R,4S)-1-[(1-methyl-1H-imidazol-4-yl)sulfonyl]-4-phenylpyrrolidin-3-yl}carbamate]",≤ 10 µM
7,"Cn1cnc(S(=O)(=O)N2C[C@H](NC(=O)CC3CC3)[C@@H](c3ccccc3)C2)c1 [Example 546, 2-cyclopropyl-N-{(3R,4S)-1-[(1-methyl-1H-imidazol-4-yl)sulfonyl]-4-phenylpyrrolidin-3-yl}acetamide]",≥ 10 µM
8,"CCCCC(=O)N[C@H]1CN(S(=O)(=O)c2cn(C)cn2)C[C@@H]1c1ccccc1 [Example 549, N-{(3R,4S)-1-[(1-methyl-1H-imidazol-4-yl)sulfonyl]-4-phenylpyrrolidin-3-yl}pentanamide]",≤ 10 µM
9,"CCCCCC(=O)N[C@H]1CN(S(=O)(=O)c2cn(C)cn2)C[C@@H]1c1ccccc1 [Example 550, N-{(3R,4S)-1-[(1-methyl-1H-imidazol-4-yl)sulfonyl]-4-phenylpyrrolidin-3-yl}hexanamide]",≤ 10 µM
10,"Cn1cnc(S(=O)(=O)N2C[C@H](NCCO[Si](C)(C)C(C)(C)C)[C@@H](c3ccccc3)C2)c1 [Example 551, (3R,4S)-N-(2-{[tert-butyl(dimethyl)silyl]oxy}ethyl)-1-[(1-methyl-1H-imidazol-4-yl)sulfonyl]-4-phenylpyrrolidin-3-amine]",≤ 10 µM
11,Cn1cnc(S(=O)(=O)N2C[C@H](NCc3cccc(C(F)(F)F)n3)[C@@H](c3ccccc3)C2)c1 [Example 552],≤ 10 µM
12,"Cn1cnc(S(=O)(=O)N2C[C@H](NCc3cccc4ccnn34)[C@@H](c3ccccc3)C2)c1 [Example 555, (3R,4S)-1-[(1-methyl-1H-imidazol-4-yl)sulfonyl]-4-phenyl-N-(pyrazolo[1,5-a]pyridin-7-ylmethyl)pyrrolidin-3-amine]",≤ 10 µM
13,"CC(C)c1csc(CN[C@H]2CN(S(=O)(=O)c3cn(C)cn3)C[C@@H]2c2ccccc2)n1 [Example 556, (3R,4S)-1-[(1-methyl-1H-imidazol-4-yl)sulfonyl]-4-phenyl-N-{[4-(propan-2-yl)-1,3-thiazol-2-yl]methyl}pyrrolidin-3-amine]",≤ 10 µM
14,"Cn1cnc(S(=O)(=O)N2C[C@H](NCc3ccc(C4CCCCO4)s3)[C@@H](c3ccccc3)C2)c1 (stereo partly drawn) [Example 558, (3R,4S)-1-[(1-methyl-1H-imidazol-4-yl)sulfonyl]-4-phenyl-N-{[5-(tetrahydro-2H-pyran-2-yl)thiophen-2-yl]methyl}pyrrolidin-3-amine]",≤ 10 µM

# More lines, now with the values ahead:
row,Ki,SMILES
1,≤ 10 µM,"O=C1Cc2cc(S(=O)(=O)N3CC(Nc4ccc(F)c(F)c4)C(c4ccccc4)C3)ccc2N1 (stereo not drawn) [Example 507, 5-({3-[(3,4-difluorophenyl)amino]-4-phenylpyrrolidin-1-yl}sulfonyl)-1,3-dihydro-2H-indol-2-one]"
2,≤ 10 µM,"O=S(=O)(C1CCCCC1)N1CC(Nc2ccc(F)c(F)c2)C(c2ccccc2)C1 (stereo not drawn) [Example 510, 1-(cyclohexylsulfonyl)-N-(3,4-difluorophenyl)-4-phenylpyrrolidin-3-amine]"
3,≤ 10 µM,O=C1CCc2cc(S(=O)(=O)N3CC(Nc4ccc(F)c(F)c4)C(c4ccccc4)C3)ccc2N1 (stereo not drawn) [Example 512]
4,≤ 10 µM,"O=c1[nH]c2cc(S(=O)(=O)N3CC(Nc4ccc(F)c(F)c4)C(c4ccccc4)C3)ccc2o1 (stereo not drawn) [Example 514, 5-({3-[(3,4-difluorophenyl)amino]-4-phenylpyrrolidin-1-yl}sulfonyl)-1,3-benzoxazol-2(3H)-one]"
5,≤ 10 µM,"O=S(=O)(c1cccc2cnccc12)N1CC(Nc2ccc(F)c(F)c2)C(c2ccccc2)C1 (stereo not drawn) [Example 515, N-(3,4-difluorophenyl)-1-(isoquinolin-5-ylsulfonyl)-4-phenylpyrrolidin-3-amine]"
6,≤ 10 µM,"Cc1cc(S(=O)(=O)N2CC(Nc3ccc(F)c(F)c3)C(c3ccccc3)C2)c(C)s1 (stereo not drawn) [Example 517, N-(3,4-difluorophenyl)-1-[(2,5-dimethylthiophen-3-yl)sulfonyl]-4-phenylpyrrolidin-3-amine]"
7,≤ 10 µM,"O=S(=O)(c1c(Cl)nc2sccn12)N1CC(Nc2ccc(F)c(F)c2)C(c2ccccc2)C1 (stereo not drawn) [Example 520, 1-[(6-chloroimidazo[2,1-b][1,3]thiazol-5-yl)sulfonyl]-N-(3,4-difluorophenyl)-4-phenylpyrrolidin-3-amine]"
8,≤ 10 µM,"O=S(=O)(N1CCOCC1)N1CC(Nc2ccc(F)c(F)c2)C(c2ccccc2)C1 (stereo not drawn) [Example 521, N-(3,4-difluorophenyl)-1-(morpholin-4-ylsulfonyl)-4-phenylpyrrolidin-3-amine]"
9,≤ 10 µM,"COc1nccc(N[C@H]2CN(S(=O)(=O)c3cn(C)cn3)C[C@@H]2c2ccccc2)n1 [Example 532, 2-methoxy-N-{(3R,4S)-1-[(1-methyl-1H-imidazol-4-yl)sulfonyl]-4-phenylpyrrolidin-3-yl}pyrimidin-4-amine]"
10,≤ 10 µM,"Cc1nc(CN[C@H]2CN(S(=O)(=O)c3cn(C)cn3)C[C@@H]2c2ccccc2)cs1 [Example 533, (3R,4S)-1-[(1-methyl-1H-imidazol-4-yl)sulfonyl]-N-[(2-methyl-1,3-thiazol-4-yl)methyl]-4-phenylpyrrolidin-3-amine]"
11,≤ 1 µM,"CCc1oc2ccccc2c1CN[C@H]1CN(S(=O)(=O)c2cn(C)cn2)C[C@@H]1c1ccccc1 [Example 534, (3R,4S)-N-[(2-ethyl-1-benzofuran-3-yl)methyl]-1-[(1-methyl-1H-imidazol-4-yl)sulfonyl]-4-phenylpyrrolidin-3-amine]"
12,≤ 10 µM,"Cn1cnc(S(=O)(=O)N2C[C@H](NCc3cccn4ccnc34)[C@@H](c3ccccc3)C2)c1 [Example 535, (3R,4S)-N-(imidazo[1,2-a]pyridin-8-ylmethyl)-1-[(1-methyl-1H-imidazol-4-yl)sulfonyl]-4-phenylpyrrolidin-3-amine]"
13,≤ 1 µM,"Cc1ccc(CN[C@H]2CN(S(=O)(=O)c3cn(C)cn3)C[C@@H]2c2ccccc2)nc1 [Example 536, (3R,4S)-1-[(1-methyl-1H-imidazol-4-yl)sulfonyl]-N-[(5-methylpyridin-2-yl)methyl]-4-phenylpyrrolidin-3-amine]"
14,≤ 10 µM,"Cn1cnc(S(=O)(=O)N2C[C@H](NCc3cnn4ccccc34)[C@@H](c3ccccc3)C2)c1 [Example 537, (3R,4S)-1-[(1-methyl-1H-imidazol-4-yl)sulfonyl]-4-phenyl-N-(pyrazolo[1,5-a]pyridin-3-ylmethyl)pyrrolidin-3-amine]"
15,≤ 10 µM,"Cn1cnc(S(=O)(=O)N2CC(NCc3ccc(C(F)(F)F)cc3)C(O)(c3ccccc3)C2)c1 (stereo not drawn) [Example 539, 1-[(1-methyl-1H-imidazol-4-yl)sulfonyl]-3-phenyl-4-{[4-(trifluoromethyl)benzyl]amino}pyrrolidin-3-ol]"
16,≤ 1 µM,"Cn1cnc(S(=O)(=O)N2C[C@H](NCCC3CC3)[C@@H](c3ccccc3)C2)c1 [Example 545, (3R,4S)-N-(2-cyclopropylethyl)-1-[(1-methyl-1H-imidazol-4-yl)sulfonyl]-4-phenylpyrrolidin-3-amine]"
17,≤ 0.1 µM,"CCC/C=C/CN[C@H]1CN(S(=O)(=O)c2cn(C)cn2)C[C@@H]1c1ccccc1 [Example 547, (3R,4S)-N-[(2E)-hex-2-en-1-yl]-1-[(1-methyl-1H-imidazol-4-yl)sulfonyl]-4-phenylpyrrolidin-3-amine]"
18,≤ 1 µM,"Cn1cnc(S(=O)(=O)N2C[C@H](NCc3sccc3Cl)[C@@H](c3ccccc3)C2)c1 [Example 553, (3R,4S)-N-[(3-chlorothiophen-2-yl)methyl]-1-[(1-methyl-1H-imidazol-4-yl)sulfonyl]-4-phenylpyrrolidin-3-amine]"
19,≤ 1 µM,"Cn1cnc(S(=O)(=O)N2C[C@H](NCC3CCC(F)(F)CC3)[C@@H](c3ccccc3)C2)c1 [Example 554, (3R,4S)-N-[(4,4-difluorocyclohexyl)methyl]-1-[(1-methyl-1H-imidazol-4-yl)sulfonyl]-4-phenylpyrrolidin-3-amine]"

# From patent publication EP2970215B1, “PYRROLIDINE DERIVATIVES, PHARMACEUTICAL COMPOSITIONS CONTAINING THEM, AND THEIR USE IN THERAPY” (AbbVie Deutschland GmbH & Co. KG, priority 2013, dated 2014)
